Data as given in patent US5352608A (priority 1992, dated 1994).
“Also recorded” adds a separate entry of the source. Where two headings read alike, the source gives them in different places.

Key:
Rhodospirillum rubrum Ha = experiment: Intrinsic HLR to TeO3^2- (MIC); type: cell-based
[1] = tested on: Rhodobacter sphaeroides 2.4.7; experiment: Intrinsic HLR to TeO3^2- (MIC); type: cell-based
R. sphaeroides BC17 = experiment: Intrinsic HLR to tellurite in R. sphaeroides mutants (MIC); type: cell-based, Rhodobacter sphaeroides; settings: for MIC K2 TeO3: SMM succinate
Description: (§1) All Proteobacteria were grown at 30° C. with the exception of E. coli which was cultured at 37° C. on a Gyrotary shaker. Cultures of R. sphaeroides and R. gelatinosus were grown in LB, YP, or SMM containing either 0.4% succinate, 0.4% malate, or 0.4% butyrate as a carbon source. Cultures of R. capsulatus were grown in RCVB minimal medium containing 0.4% malate as a carbon source; R. rubrum was grown in SMM containing 0.4% malate, and 0.1% yeast extract. R. palustris and R. viridis were grown in SMM containing 0.4% malate, 0.1% yeast extract, and 50 μg/ml each of p-aminobenzoic acid and cyanocobalamin. […] Anaerobic-dark growth of R. sphaeroides on SMM medium containing DMSO, and photoheterotrophic growth conditions have been previously reported.
(§2) Several growth conditions were examined to determine requirements for tellurite reduction in vivo. Table 5 indicates the growth conditions tested.
(§3) ^a MIC were determined in SMM containing succinate at 30° C.
(§4) ^c Supplemented with 60 mM DMSO.

[2] = tested on: R. sphaeroides PRKA^- B^-; experiment: as above; type: cell-based, Rhodobacter sphaeroides; settings: for MIC K2 TeO3: SMM succinate
Description: as §1, §2, §3, §4

R. sphaeroides MM1006 = experiment: as above; type: cell-based, Rhodobacter sphaeroides; settings: SMM succinate; aerobic; ( ) = resistance but no deposition of Te^0
Description: as §1, §2, §3, §4

R. sphaeroides CFXB^- = experiment: as above; type: cell-based, Rhodobacter sphaeroides; settings: for MIC K2 TeO3: SMM succinate
Description: as §1, §2, §3, §4

R. sphaeroides PUHA1 = experiment: as above; type: cell-based, Rhodobacter sphaeroides; settings: for MIC K2 TeO3: SMM succinate
Description: as §1, §2, §3, §4

R. sphaeroides CYCA1 = experiment: as above; type: cell-based, Rhodobacter sphaeroides; settings: SMM succinate; aerobic; ( ) = resistance but no deposition of Te^0
Description: as §1, §2, §3, §4

R. sphaeroides CFXA^- = experiment: as above; type: cell-based, Rhodobacter sphaeroides; settings: for MIC K2 TeO3: SMM succinate; for Increase in TeO3^2- sensitivity: cfxA deletion
Description: as §1, §2, §3, §4

R. sphaeroides PUC705B = experiment: as above; type: cell-based, Rhodobacter sphaeroides; settings: SMM succinate
Description: as §1, §2, §3, §4

R. sphaeroides 2.4.1ΔS = experiment: as above; type: cell-based, Rhodobacter sphaeroides; settings: for MIC K2 TeO3: SMM succinate
Description: as §1, §2, §3, §4

R. sphaeroides PUFB1 = experiment: as above; type: cell-based, Rhodobacter sphaeroides; settings: SMM succinate; aerobic; ( ) = resistance but no deposition of Te^0
Description: as §1, §2, §3, §4

[3] = tested on: R. sphaeroides CFXA^- B^-; experiment: as above; type: cell-based, Rhodobacter sphaeroides; settings: for MIC K2 TeO3: SMM succinate
Description: as §1, §2, §3, §4

R. sphaeroides 2.4.1-Ga = experiment: as above; type: cell-based, Rhodobacter sphaeroides; settings: for MIC K2 TeO3: SMM succinate
Description: as §1, §2, §3, §4

[4] = tested on: Rhodobacter capsulatus B10; experiment: Intrinsic HLR to TeO3^2- (MIC); type: cell-based
[5] = tested on: tellurite reductase activity, R. sphaeroides BC17; experiment: TeO3^2- -dependent FADH2 oxidation in subcellular fractions; type: biochemical, Rhodobacter sphaeroides; settings: for FADH2 oxidation: 100 μg/ml K2 TeO3
[6] = tested on: Rhodobacter sphaeroides RS2; experiment: Intrinsic HLR to TeO3^2- (MIC); type: cell-based; settings: for MIC of RS2 lower than strain 2.4.1, 2.4.7 or WS8: approximately
R. sphaeroides MM1004 = type: cell-based, Rhodobacter sphaeroides; settings: SMM succinate
Description: as §1, §2, §3, §4

[7] = tested on: Rhodopseudomonas palustris 1e5; experiment: Intrinsic HLR to TeO3^2- (MIC); type: cell-based
R. sphaeroides 2.4.1 [8] = experiment: Hydrogen evolution from oxyanion reduction; type: cell-based, Rhodobacter sphaeroides
[9] = tested on: tellurite reductase activity, R. sphaeroides PUHA1; experiment: TeO3^2- -dependent FADH2 oxidation in subcellular fractions; type: biochemical, Rhodobacter sphaeroides; settings: 100 μg/ml K2 TeO3
[10] = tested on: Rhodobacter sphaeroides 2.4.1; type: cell-based
[11] = tested on: tellurite reductase activity, R. sphaeroides PRKA^- B^-; experiment: TeO3^2- -dependent FADH2 oxidation in subcellular fractions; type: biochemical, Rhodobacter sphaeroides; settings: 100 μg/ml K2 TeO3
[12] = tested on: tellurite reductase activity, R. sphaeroides 2.4.1; experiment: as above; type: biochemical, Rhodobacter sphaeroides; settings: for FADH2 oxidation: 100 μg/ml K2 TeO3
R. sphaeroides 2.4.1 [13] = type: cell-based, Rhodobacter sphaeroides
[14] = aerobic, ( ) = resistance but no deposition of Te^0

## O=[Te]([O-])[O-].[K+].[K+] [K2 TeO3]
Rhodospirillum rubrum Ha
  Resistance to tellurite in words: low resistance
Rhodospirillum rubrum Ha; aerobic, minimal medium
  MIC K2 TeO3: 20 µg/mL
Rhodospirillum rubrum Ha; photosynthetic, 10 W/m^2
  MIC K2 TeO3: 10 µg/mL
[1]; aerobic, minimal medium
  MIC K2 TeO3: 800 µg/mL
[1]; photosynthetic, 10 W/m^2
  MIC K2 TeO3: 500 µg/mL
R. sphaeroides BC17; aerobic
  MIC K2 TeO3: < 10 µg/mL
R. sphaeroides BC17; anaerobic-dark, 60 mM DMSO
  MIC K2 TeO3: < 10 µg/mL
R. sphaeroides BC17; all growth conditions
  Concentration to which strain is sensitive: 10 µg/mL
[2]; [14]
  MIC K2 TeO3: 150 µg/mL
[2]; anaerobic-dark, 60 mM DMSO
  MIC K2 TeO3: < 10 µg/mL
[2]; aerobic
  Concentration to which strain is resistant: < 200 µg/mL
R. sphaeroides MM1006
  MIC K2 TeO3: 400 µg/mL
R. sphaeroides CFXB^-; aerobic
  MIC K2 TeO3: 750 µg/mL
R. sphaeroides CFXB^-; anaerobic-dark, 60 mM DMSO
  MIC K2 TeO3: 150 µg/mL
R. sphaeroides CFXB^-; photosynthetic 10 W/m^2
  MIC K2 TeO3: 650 µg/mL
R. sphaeroides CFXB^-; single mutation in cfxB
  Diminution of HLR to TeO3^2-: 10-20%
R. sphaeroides PUHA1; aerobic
  MIC K2 TeO3: < 10 µg/mL
R. sphaeroides PUHA1; anaerobic-dark, 60 mM DMSO
  MIC K2 TeO3: < 10 µg/mL
R. sphaeroides PUHA1; all growth conditions
  Concentration to which strain is sensitive: 10 µg/mL
R. sphaeroides CYCA1
  MIC K2 TeO3: 400 µg/mL
R. sphaeroides CFXA^-; aerobic
  MIC K2 TeO3: 400 µg/mL
  Increase in TeO3^2- sensitivity: two-fold
R. sphaeroides CFXA^-; anaerobic-dark, 60 mM DMSO
  MIC K2 TeO3: 50 µg/mL
R. sphaeroides CFXA^-; photosynthetic 10 W/m^2
  MIC K2 TeO3: 100 µg/mL
R. sphaeroides CFXA^-; photosynthetic and anaerobic-dark/DMSO, at least
  Increase in TeO3^2- sensitivity: at least three- to five-fold
R. sphaeroides PUC705B; aerobic
  MIC K2 TeO3: 850 µg/mL
R. sphaeroides PUC705B; anaerobic-dark, 60 mM DMSO
  MIC K2 TeO3: 150 µg/mL
R. sphaeroides PUC705B; photosynthetic 10 W/m^2
  MIC K2 TeO3: 500 µg/mL
R. sphaeroides 2.4.1ΔS
  Effect of 42-kb plasmid deletion on HLR: did not diminish HLR to TeO3^2-
R. sphaeroides 2.4.1ΔS; aerobic
  MIC K2 TeO3: 850 µg/mL
R. sphaeroides 2.4.1ΔS; anaerobic-dark, 60 mM DMSO
  MIC K2 TeO3: 150 µg/mL
R. sphaeroides 2.4.1ΔS; photosynthetic 10 W/m^2
  MIC K2 TeO3: 600 µg/mL
R. sphaeroides PUFB1
  MIC K2 TeO3: 400 µg/mL
[3]; [14]
  MIC K2 TeO3: 200 µg/mL
[3]; anaerobic-dark, 60 mM DMSO
  MIC K2 TeO3: < 10 µg/mL
[3]; aerobic
  Concentration to which strain is resistant: < 200 µg/mL
R. sphaeroides 2.4.1-Ga; aerobic
  MIC K2 TeO3: 600 µg/mL
R. sphaeroides 2.4.1-Ga; anaerobic-dark, 60 mM DMSO
  MIC K2 TeO3: 100 µg/mL
R. sphaeroides 2.4.1-Ga; photosynthetic 10 W/m^2
  MIC K2 TeO3: 450 µg/mL
R. sphaeroides 2.4.1-Ga; vs wild-type
  Increase in TeO3^2- sensitivity: 20%
[4]; aerobic
  Resistance in words: intrinsic high level resistance
[4]; aerobic, minimal medium
  MIC K2 TeO3: 800 µg/mL
[4]; aerobic, tellurite
  MIC relative to E. coli: at least 80 times
[4]; photosynthetic, 10 W/m^2
  MIC K2 TeO3: 500 µg/mL
[5]; cytoplasm
  FADH2 oxidation: 20 nmol/min/mg
[5]; in vitro
  TeO3^2- -dependent FADH2 oxidase activity in words: Neither BC17 nor PUHA1, two mutants which were previously shown to be tellurite sensitive under both aerobic and anaerobic-dark/DMSO growth conditions, expressed significant levels
[5]; membrane
  FADH2 oxidation: 51 nmol/min/mg
[5]; periplasm
  FADH2 oxidation: 2 nmol/min/mg
[6]; aerobic, minimal medium
  MIC K2 TeO3: 400 µg/mL
[6]
  MIC of RS2 lower than strain 2.4.1, 2.4.7 or WS8: approximately two-to three fold
[6]; listed as tellurite
  MIC of RS2 lower than strain 2.4.1, 2.4.7 or WS8: approximately two- to three-fold
[6]; photosynthetic, 10 W/m^2
  MIC K2 TeO3: 250 µg/mL
R. sphaeroides MM1004; aerobic
  MIC K2 TeO3: 800 µg/mL
R. sphaeroides MM1004; photosynthetic 10 W/m^2
  MIC K2 TeO3: 550 µg/mL
[7]; aerobic, minimal medium
  MIC K2 TeO3: 200 µg/mL
[7]; photosynthetic, 10 W/m^2
  MIC K2 TeO3: 100 µg/mL
R. sphaeroides 2.4.1 [8]; 1 atm, 303° K., major component H2
  Gas evolved: 8.37 mmol
R. sphaeroides 2.4.1 [8]; culture grown in presence of TeO3^2-
  Water displaced from the gas collection vessel: 208 mL
R. sphaeroides 2.4.1 [8]; per mmole Te^o
  H2 evolved per mmole of Te^o deposited: approximately 11.5 mmoles
[9]; cytoplasm
  FADH2 oxidation: 37 nmol/min/mg
[9]; membrane
  FADH2 oxidation: 28 nmol/min/mg
[9]; periplasm
  FADH2 oxidation: 3 nmol/min/mg
[10]
  MIC Low-PO4^3- Medium: 600 µg/mL
  MIC Standard Medium: 600 µg/mL
  MIC ratio 10 W/m^2 vs 3 W/m^2: at least two-fold
  MIC ratio aerobically- vs. photosynthetically-grown: two- to three-fold
  MIC relative to E. coli: at least 80 times
  Reduction in TeO3^2- resistance with supplement: thirty- to forty-fold
  Relative toxicity: SeO4^2- >TeO4^2- >TeO3^2- >SeO3^2- >Rh2 O3.5H2 O
  Resistance in words: intrinsic high level resistance
[11]; membrane
  FADH2 oxidation: 200 nmol/min/mg
[11]; periplasm
  FADH2 oxidation: 3 nmol/min/mg
[12]; cytoplasm
  FADH2 oxidation: 60 nmol/min/mg
[12]; membrane
  FADH2 oxidation: 300 nmol/min/mg
[12]; periplasm
  FADH2 oxidation: 1 nmol/min/mg
[12]; periplasmic and cytoplasmic fractions of all strains
  Reductase activity in words: Negligible reductase activity
R. sphaeroides 2.4.1 [13]
  Appearance of cells / metal deposit: intracellular accumulation of a dense metal deposit; also recorded: produced a black deposit which did not diffuse into the medium
  Gas evolution: +++ +
  Gas evolution in words: Copious gas evolution
